Experimental data published in publication PMC8699473, “An Easily Expandable Multi-Drug LC-MS Assay for the Simultaneous Quantification of 57 Oral Antitumor Drugs in Human Plasma” (Cancers, 2021).

Assay: Long-term stability in spiked pooled human plasma

SMILES | Long-term stability, 1 month, -20°C Accuracy [%] (validation standard 2xLLOV) | Long-term stability, 1 month, -80°C Accuracy [%] (validation standard 2xLLOV) | Long-term stability, 2 month, -20°C Accuracy [%] (validation standard 2xLLOV) | Long-term stability, 2 month, -80°C Accuracy [%] (validation standard 2xLLOV) | Long-term stability, 3 month, -20°C Accuracy [%] (validation standard 2xLLOV) | Long-term stability, 3 month, -80°C Accuracy [%] (validation standard 2xLLOV) | Long-term stability, 6 weeks, 4°C, without daylight Accuracy [%] (validation standard 2xLLOV) | Long-term stability, 1 month, -20°C Accuracy [%] (validation standard LLOV) | Long-term stability, 1 month, -80°C Accuracy [%] (validation standard LLOV) | Long-term stability, 2 month, -20°C Accuracy [%] (validation standard LLOV) | Long-term stability, 2 month, -80°C Accuracy [%] (validation standard LLOV) | Long-term stability, 3 month, -20°C Accuracy [%] (validation standard LLOV) | Long-term stability, 3 month, -80°C Accuracy [%] (validation standard LLOV) | Long-term stability, 6 weeks, 4°C, without daylight Accuracy [%] (validation standard LLOV) | Long-term stability, 1 month, -20°C Accuracy [%] (validation standard MOV) | Long-term stability, 1 month, -80°C Accuracy [%] (validation standard MOV) | Long-term stability, 2 month, -20°C Accuracy [%] (validation standard MOV) | Long-term stability, 2 month, -80°C Accuracy [%] (validation standard MOV) | Long-term stability, 3 month, -20°C Accuracy [%] (validation standard MOV) | Long-term stability, 3 month, -80°C Accuracy [%] (validation standard MOV) | further results
CCN1CCN(Cc2ccc(Nc3ncc(F)c(-c4cc(F)c5nc(C)n(C(C)C)c5c4)n3)nc2)CC1 [Abemaciclib] | 95.0% | 90.1% | 109.1% | 111.4% | 98.8% | 103.4% | 92.0% | 103.5% | 88.4% | 107.2% | 112.7% | 95.7% | 101.8% | 86.3% | 103.0% | 96.2% | 107.3% | 105.5% | 104.4% | 101.8% | Long-term stability, 6 weeks, 4°C, without daylight Accuracy [%] (validation standard MOV): 106.3%; Long-term stability, 1 month, -20°C Accuracy [%] (validation standard ULOV): 102.4%; Long-term stability, 1 month, -80°C Accuracy [%] (validation standard ULOV): 97.8%; Long-term stability, 2 month, -20°C Accuracy [%] (validation standard ULOV): 106.0%; Long-term stability, 2 month, -80°C Accuracy [%] (validation standard ULOV): 105.1%; Long-term stability, 3 month, -20°C Accuracy [%] (validation standard ULOV): 103.5%; Long-term stability, 3 month, -80°C Accuracy [%] (validation standard ULOV): 99.9%; Long-term stability, 6 weeks, 4°C, without daylight Accuracy [%] (validation standard ULOV): 99.1%
C[C@]12CC[C@H](O)CC1=CC[C@@H]1[C@@H]2CC[C@]2(C)C(c3cccnc3)=CC[C@@H]12 [Abiraterone] | 96.2% | 93.5% | 101.0% | 100.1% | 97.2% | 97.9% | 101.6% | 96.5% | 93.2% | 97.0% | 105.8% | 101.7% | 106.0% | 110.7% | 95.8% | 93.5% | 101.2% | 102.9% | 101.8% | 100.6% | Long-term stability, 6 weeks, 4°C, without daylight Accuracy [%] (validation standard MOV): 106.4%; Long-term stability, 1 month, -20°C Accuracy [%] (validation standard ULOV): 98.3%; Long-term stability, 1 month, -80°C Accuracy [%] (validation standard ULOV): 93.2%; Long-term stability, 2 month, -20°C Accuracy [%] (validation standard ULOV): 102.5%; Long-term stability, 2 month, -80°C Accuracy [%] (validation standard ULOV): 103.2%; Long-term stability, 3 month, -20°C Accuracy [%] (validation standard ULOV): 99.7%; Long-term stability, 3 month, -80°C Accuracy [%] (validation standard ULOV): 100.6%; Long-term stability, 6 weeks, 4°C, without daylight Accuracy [%] (validation standard ULOV): 102.8%
CN(C)C/C=C/C(=O)Nc1cc2c(Nc3ccc(F)c(Cl)c3)ncnc2cc1O[C@H]1CCOC1 [Afatinib] | 79.7% | 90.7% | 72.1% | 92.5% | 76.9% | 94.1% | 26.7% | 70.0% | 75.4% | 68.4% | 85.8% | 68.4% | 90.0% | 2.9% | 87.9% | 93.1% | 84.4% | 96.0% | 78.2% | 96.4% | Long-term stability, 6 weeks, 4°C, without daylight Accuracy [%] (validation standard MOV): 44.2%; Long-term stability, 1 month, -20°C Accuracy [%] (validation standard ULOV): 86.5%; Long-term stability, 1 month, -80°C Accuracy [%] (validation standard ULOV): 91.2%; Long-term stability, 2 month, -20°C Accuracy [%] (validation standard ULOV): 88.3%; Long-term stability, 2 month, -80°C Accuracy [%] (validation standard ULOV): 96.0%; Long-term stability, 3 month, -20°C Accuracy [%] (validation standard ULOV): 82.8%; Long-term stability, 3 month, -80°C Accuracy [%] (validation standard ULOV): 92.1%; Long-term stability, 6 weeks, 4°C, without daylight Accuracy [%] (validation standard ULOV): 37.3%
O=C1CN2Cc3c(ccc(Cl)c3Cl)N=C2N1 [Anagrelide] | 99.8% | 105.6% | 121.4% | 118.5% | 110.2% | 114.9% | 74.6% | 103.9% | 121.5% | 128.7% | 141.5% | 101.8% | 118.8% | 33.5% | 95.0% | 97.0% | 101.3% | 98.7% | 95.7% | 95.1% | Long-term stability, 6 weeks, 4°C, without daylight Accuracy [%] (validation standard MOV): 103.7%; Long-term stability, 1 month, -20°C Accuracy [%] (validation standard ULOV): 95.4%; Long-term stability, 1 month, -80°C Accuracy [%] (validation standard ULOV): 90.8%; Long-term stability, 2 month, -20°C Accuracy [%] (validation standard ULOV): 94.5%; Long-term stability, 2 month, -80°C Accuracy [%] (validation standard ULOV): 99.2%; Long-term stability, 3 month, -20°C Accuracy [%] (validation standard ULOV): 94.9%; Long-term stability, 3 month, -80°C Accuracy [%] (validation standard ULOV): 94.7%; Long-term stability, 6 weeks, 4°C, without daylight Accuracy [%] (validation standard ULOV): 97.1%
CNC(=O)c1ccc(N2C(=S)N(c3cnc(C#N)c(C(F)(F)F)c3)C(=O)C23CCC3)cc1F [Apalutamide] | 94.7% | 93.2% | 91.6% | 100.0% | 85.1% | 94.9% | 73.5% | 96.1% | 100.0% | 93.4% | 102.3% | 90.4% | 98.4% | 78.5% | 89.4% | 91.1% | 90.2% | 97.6% | 86.8% | 89.7% | Long-term stability, 6 weeks, 4°C, without daylight Accuracy [%] (validation standard MOV): 54.9%; Long-term stability, 1 month, -20°C Accuracy [%] (validation standard ULOV): 90.6%; Long-term stability, 1 month, -80°C Accuracy [%] (validation standard ULOV): 90.2%; Long-term stability, 2 month, -20°C Accuracy [%] (validation standard ULOV): 88.9%; Long-term stability, 2 month, -80°C Accuracy [%] (validation standard ULOV): 95.9%; Long-term stability, 3 month, -20°C Accuracy [%] (validation standard ULOV): 78.8%; Long-term stability, 3 month, -80°C Accuracy [%] (validation standard ULOV): 90.1%; Long-term stability, 6 weeks, 4°C, without daylight Accuracy [%] (validation standard ULOV): 48.1%
CNC(=O)c1ccccc1Sc1ccc2c(/C=C/c3ccccn3)n[nH]c2c1 [Axitinib] | 86.8% | 86.83% | 87.6% | 94.2% | 92.9% | 100.1% | 66.5% | 87.8% | 83.07% | 110.1% | 90.5% | 107.3% | 102.5% | 49.2% | 89.8% | 87.50% | 87.7% | 92.2% | 95.9% | 90.5% | Long-term stability, 6 weeks, 4°C, without daylight Accuracy [%] (validation standard MOV): 100.5%; Long-term stability, 1 month, -20°C Accuracy [%] (validation standard ULOV): 92.0%; Long-term stability, 1 month, -80°C Accuracy [%] (validation standard ULOV): 87.13%; Long-term stability, 2 month, -20°C Accuracy [%] (validation standard ULOV): 88.8%; Long-term stability, 2 month, -80°C Accuracy [%] (validation standard ULOV): 91.3%; Long-term stability, 3 month, -20°C Accuracy [%] (validation standard ULOV): 86.8%; Long-term stability, 3 month, -80°C Accuracy [%] (validation standard ULOV): 91.9%; Long-term stability, 6 weeks, 4°C, without daylight Accuracy [%] (validation standard ULOV): 91.2%
Cn1cnc2c(F)c(Nc3ccc(Br)cc3F)c(C(=O)NOCCO)cc21 [Binimetinib] | 94.8% | 97.4% | 105.7% | 106.4% | 99.5% | 104.4% | 95.3% | 103.4% | 106.3% | 116.3% | 124.3% | 105.4% | 104.6% | 104.1% | 92.3% | 94.4% | 95.9% | 96.6% | 97.9% | 98.7% | Long-term stability, 6 weeks, 4°C, without daylight Accuracy [%] (validation standard MOV): 109.9%; Long-term stability, 1 month, -20°C Accuracy [%] (validation standard ULOV): 99.6%; Long-term stability, 1 month, -80°C Accuracy [%] (validation standard ULOV): 97.2%; Long-term stability, 2 month, -20°C Accuracy [%] (validation standard ULOV): 99.2%; Long-term stability, 2 month, -80°C Accuracy [%] (validation standard ULOV): 101.1%; Long-term stability, 3 month, -20°C Accuracy [%] (validation standard ULOV): 98.9%; Long-term stability, 3 month, -80°C Accuracy [%] (validation standard ULOV): 102.6%; Long-term stability, 6 weeks, 4°C, without daylight Accuracy [%] (validation standard ULOV): 99.7%
COc1cc(N2CCC(N3CCN(C)CC3)CC2)ccc1Nc1ncc(Cl)c(Nc2ccccc2P(C)(C)=O)n1 [Brigatinib] | 92.4% | 92.1% | 105.4% | 110.2% | 96.3% | 99.0% | 94.2% | 93.6% | 88.3% | 100.6% | 96.7% | 92.1% | 93.0% | 89.6% | 100.8% | 96.9% | 108.5% | 107.5% | 105.5% | 106.8% | Long-term stability, 6 weeks, 4°C, without daylight Accuracy [%] (validation standard MOV): 104.7%; Long-term stability, 1 month, -20°C Accuracy [%] (validation standard ULOV): 100.4%; Long-term stability, 1 month, -80°C Accuracy [%] (validation standard ULOV): 95.0%; Long-term stability, 2 month, -20°C Accuracy [%] (validation standard ULOV): 105.8%; Long-term stability, 2 month, -80°C Accuracy [%] (validation standard ULOV): 108.0%; Long-term stability, 3 month, -20°C Accuracy [%] (validation standard ULOV): 102.6%; Long-term stability, 3 month, -80°C Accuracy [%] (validation standard ULOV): 98.7%; Long-term stability, 6 weeks, 4°C, without daylight Accuracy [%] (validation standard ULOV): 98.6%
